Here are results for two molecules from patent US7329510B2, “Full length human HCN1Ih channel subunit and variants” (N.V. Organon, priority 2000, dated 2008).

This assay concerns the target T1, human HCN1 channel (Homo sapiens, UniProt O60741, S680F).
T1 construct: Effect of ZD 7288 (100 micromolar) on hHCN1 (full-length) currents; expressed in transfected cells; host or cells: HEK 293F
T1 sequence (O60741 1-890 S680F): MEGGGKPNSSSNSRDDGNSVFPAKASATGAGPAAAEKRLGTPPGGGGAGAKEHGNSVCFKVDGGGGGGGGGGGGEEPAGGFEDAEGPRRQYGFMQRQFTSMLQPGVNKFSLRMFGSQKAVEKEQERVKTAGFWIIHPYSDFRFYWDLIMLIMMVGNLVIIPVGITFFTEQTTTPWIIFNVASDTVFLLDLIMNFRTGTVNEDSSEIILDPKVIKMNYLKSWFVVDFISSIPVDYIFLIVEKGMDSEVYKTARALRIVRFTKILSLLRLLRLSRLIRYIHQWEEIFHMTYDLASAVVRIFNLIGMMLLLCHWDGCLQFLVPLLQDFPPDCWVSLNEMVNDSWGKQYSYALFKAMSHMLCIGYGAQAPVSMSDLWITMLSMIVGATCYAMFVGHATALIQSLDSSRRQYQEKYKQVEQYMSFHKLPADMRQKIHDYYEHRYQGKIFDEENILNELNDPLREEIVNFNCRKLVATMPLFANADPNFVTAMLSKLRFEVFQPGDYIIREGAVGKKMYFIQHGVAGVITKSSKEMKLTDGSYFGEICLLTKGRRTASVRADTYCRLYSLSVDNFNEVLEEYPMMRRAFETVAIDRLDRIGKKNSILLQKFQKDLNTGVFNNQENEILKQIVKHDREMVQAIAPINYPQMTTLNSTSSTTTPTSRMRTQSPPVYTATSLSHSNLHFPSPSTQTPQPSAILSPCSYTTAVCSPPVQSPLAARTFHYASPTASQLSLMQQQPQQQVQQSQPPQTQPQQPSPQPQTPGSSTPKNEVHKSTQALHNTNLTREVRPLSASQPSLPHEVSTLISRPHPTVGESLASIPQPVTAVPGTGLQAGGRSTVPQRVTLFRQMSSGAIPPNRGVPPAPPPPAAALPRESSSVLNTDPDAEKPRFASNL
As to the kind of experiment: Whole-cell patch-clamp functional assay for human HCN1 channel currents. The conditions noted are these: HEK293 cells expressing human HCN1, step to -120 mV from holding -40 mV. Format: cell-based. As for the experimental part: Human HCN1 channel currents were detected under voltage-clamp using the whole-cell configuration of the patch-clamp technique. Appropriate cells (HEK293) expressing human HCN1 channel subunits were placed in a recording chamber containing extracellular solution (Sodium chloride 135 mM; Potassium chloride 5 mM; Calcium chloride 1.8 mM; Magnesium chloride 0.5 mM; HEPES 5 mM) at a temperature of 20-25 degrees centigrade. In some experiments the extracellular solution contained 30 mM Potassium chloride, in which cases the Sodium chloride concentration was reduced to 110 mM. […] The membrane current was recorded throughout the experiment. […] The membrane current was measured just after (1-10 milliseconds) the start of the hyperpolarising step and just before (10-100 milliseconds) its end. […] For each cell, the current amplitude was determined first in normal extracellular solution and then in extracellular solution containing caesium chloride (FIG. 3) or ZD 7288 (FIGS. 4 and 7). Alternatively, the effect of caesium chloride (5 mM) on human HCN1 channel currents was determined by measuring the current-voltage relationship in normal extracellular solution and also in extracellular solution containing caesium chloride (FIG. 6). […]
On the technique in general: The patch-clamp technique gives a direct electrical read-out from membranes.

For the molecule `CCN(c1ccccc1)c1cc(=NC)n(C)c(C)n1.Cl` [ZD 7288], the “Effect on human HCN1 channel currents” value (ZD 7288 100 micromolar in extracellular solution) is given as “reduced”.
With `[Cl-].[Cs+]` [caesium chloride], the “Effect on human HCN1 channel currents” value (caesium chloride 5 mM in extracellular solution) was “reduced”.
